According to patent US20220378706A1, “PHARMACEUTICAL COMPOSITION COMPRISING PDE9 INHIBITOR” (Eisai R&D Management Co., Ltd., priority 2017, published 2022):

Assays:
CSF cGMP = test: Single dose clinical study Part B: CSF cGMP pharmacodynamics; format: in vivo, human; conditions: for CSF cGMP Amax Mean (SD) / CSF cGMP TAmax Median / CSF cGMP ΔAUAC(0-30 h) Mean (SD): healthy adults Part B, fasted
Description: After the Screening Period, subjects returned to the clinic on […] for Baseline procedures. […] Serial CSF sampling via the lumbar catheter commenced on Day 1, after an overnight fast. CSF samples were collected on Day 1 over a period of 3 hours predose. Subjects were then administered study drug, and serial CSF sampling for 30 hours postdose was performed to determine CSF cGMP and CSF Compound A concentrations. Blood samples for plasma Compound A PK were collected at the same time points as CSF sampling. Safety evaluations were also performed.
Serial CSF samples were collected from the lumbar catheter for analysis of concentrations of cyclic […] monophosphate (cGMP) at −3, −2, −1 hours, predose (0 hour), and postdose at 1, 2, 3, 4, 5, 6, 8, 10, 12, 14, 16, 18, 24, and 30 hours.
Plasma, urine and CSF concentrations of Compound A were measured using validated liquid chromatography mass spectrometry/mass spectrometry (LC MS/MS) assay methods. CSF concentrations of cGMP were measured using a validated LC-MS/MS assay method.
The primary PD measure was CSF cGMP. The following PD parameters were reported for CSF cGMP:
Plasma Compound A concentrations pooled from all cohorts of the study were subjected to population PK analysis using nonlinear mixed effects modelling. The effect of covariates, such as baseline demographics/characteristics (eg, body weight, age, gender, ethnicity, etc) on the PK of Compound A were explored. The individual posterior estimates of PK parameters were then used to generate individual PK profiles of Compound A, which were used in subsequent PK/PD analysis of the percent change from baseline in CSF cGMP concentrations.

[1] = Single dose clinical study: safety assessments (adverse events); format: in vivo, human; conditions: for incidence of any TEAEs: Part B 100 mg Cohort
Text: Safety assessments consisted of monitoring and recording all adverse events (AEs) and serious adverse events (SAEs); laboratory evaluation for hematology, blood chemistry, and urine values; periodic measurement of vital signs (including orthostatic changes in blood pressure [BP] and heart rate [HR]) and electrocardiograms (ECGs); and the performance of physical examinations.
Safety data evaluated included AEs, clinical laboratory results, vital signs, and ECGs. Treatment emergent adverse events (TEAEs) were summarized by presenting the incidence of AEs for each cohort and dose group. For the laboratory, vital signs, and ECG data in all cohorts in any treatment period, the baseline was the values recorded immediately prior to dosing with study drug in that treatment period.

PDE9 = PDE9 (Homo sapiens, UniProt O76083); conditions: WO2013/051369, WO2014/163147; cited from earlier work
Chain of PDE9 (O76083 whole entry): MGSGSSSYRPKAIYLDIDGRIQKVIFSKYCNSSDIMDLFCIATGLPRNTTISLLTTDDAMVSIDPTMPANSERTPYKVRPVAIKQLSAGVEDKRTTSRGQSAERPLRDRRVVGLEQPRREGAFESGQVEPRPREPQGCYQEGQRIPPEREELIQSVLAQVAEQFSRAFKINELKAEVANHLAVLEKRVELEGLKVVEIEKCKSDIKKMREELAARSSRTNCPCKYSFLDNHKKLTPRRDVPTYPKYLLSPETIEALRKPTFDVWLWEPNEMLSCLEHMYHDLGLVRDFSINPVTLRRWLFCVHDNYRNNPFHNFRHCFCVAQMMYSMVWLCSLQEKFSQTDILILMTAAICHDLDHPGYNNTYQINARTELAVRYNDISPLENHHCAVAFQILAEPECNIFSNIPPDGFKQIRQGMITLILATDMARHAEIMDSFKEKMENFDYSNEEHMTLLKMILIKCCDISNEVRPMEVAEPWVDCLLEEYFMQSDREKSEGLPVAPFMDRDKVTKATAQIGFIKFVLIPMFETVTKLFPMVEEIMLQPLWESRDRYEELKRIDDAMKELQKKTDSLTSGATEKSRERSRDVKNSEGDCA

## COc1ncc(C)c(-c2ccc3c(c2)[nH]c(=O)c2cnn([C@H]4CCOC4)c23)c1C [Compound A, (S)-7-(2-methoxy-3,5-dimethylpyridin-4-yl)-1-(tetrahydrofuran-3-yl)-1H-pyrazolo[4,3-c]quin olin-4(5H)-one]
CSF cGMP; 100 mg administered to steady state
  sustained CSF cGMP increase from baseline predicted from PK/PD modeling: approximately 200%
CSF cGMP; single oral 50 mg
  CSF cGMP Amax Mean (SD): 367 (92.6) %
  CSF cGMP TAmax Median: 7.87 h
  CSF cGMP ΔAUAC(0-30 h) Mean (SD): 117 (51.7) %
CSF cGMP; single oral 75 mg
  CSF cGMP Amax Mean (SD): 461 (86.3) %
  CSF cGMP TAmax Median: 5.87 h
  CSF cGMP ΔAUAC(0-30 h) Mean (SD): 166 (9.61) %
CSF cGMP; single oral 100 mg
  CSF cGMP Amax Mean (SD): 293 (67.8) %
  CSF cGMP TAmax Median: 5.87 h
  CSF cGMP ΔAUAC(0-30 h) Mean (SD): 87.0 (33.9) %
CSF cGMP; single oral 200 mg
  CSF cGMP Amax Mean (SD): 424 (127) %
  CSF cGMP TAmax Median: 5.37 h
  CSF cGMP ΔAUAC(0-30 h) Mean (SD): 176 (89.5) %
CSF cGMP; single oral 400 mg
  CSF cGMP Amax Mean (SD): 420 (123) %
  CSF cGMP TAmax Median: 12.9 h
  CSF cGMP ΔAUAC(0-30 h) Mean (SD): 214 (82.3) %
[1]; Part A healthy adult subjects, single oral doses 10 to 1200 mg
  tolerability: well tolerated
[1]; Part B
  TEAE back pain: 20.8%
  TEAE dizziness: 16.7%
  TEAE headache: 29.2%
  TEAE musculoskeletal stiffness: 20.8%
  TEAE nausea: 12.5%
  TEAE pain in extremity: 8.3%
  TEAE post lumbar puncture syndrome: 37.5%
  TEAE procedural nausea: 8.3%
  TEAE procedural vomiting: 8.3%
  TEAE vomiting: 20.8%
[1]; fasted state
  incidence of any TEAEs: 66.7%
[1]; fed state
  incidence of any TEAEs: 50%
[1]; Part B healthy adults with serial CSF sampling, single oral doses 50 to 400 mg
  tolerability: well tolerated
[1]; Part B, both treatment periods, all doses
  subjects with at least 1 TEAE: 83.3%
[1]; Part C healthy elderly subjects, single dose 100 mg
  tolerability: well tolerated
[1]; Part C healthy elderly, 100 mg
  subjects with at least 1 TEAE: 16.7%
[1]; Part D
  TEAE headache: 16.7%
[1]; Part D healthy Japanese adult subjects, single oral doses 25 to 400 mg
  tolerability: well tolerated
[1]; Part D, all doses
  subjects with at least 1 TEAE: 38.9%
[1]; Parts A and C
  TEAE dizziness: 5.6%
  TEAE headache: 11.6%
  TEAE increase in orthostatic heart rate response: 3.7%
  TEAE insomnia: 5.6%
  TEAE paresthesia: 3.7%
  TEAE postural orthostatic tachycardia: 5.6%
  deaths or SAEs: no deaths or SAEs
[1]; Parts A and C, all doses
  subjects with at least 1 TEAE: 42.6%
[1]; single oral doses 10 to 1200 mg, healthy adults
  maximum tolerated dose: not reached
PDE9
  PDE9 inhibitory activity: known to have a PDE9 inhibitory activity
